Data reported in patent publication US20090054403A1, “Treatment of Post-Traumatic Stress Disorder” (priority 2007, published 2009).
Entries after “also recorded” stand apart in the source; their conditions may differ.

How the values were obtained:
parkinsonian symptoms = test: Parkinsonian clinical rating scale (CRS) in MPTP-lesioned monkeys; type: in vivo, squirrel monkeys (Saimiri sciureus); settings: hydrochloride
Protocol: A total of 24 squirrel monkeys (Saimiri sciureus), fourteen females and ten males were used in this study. The twenty-four animals were randomly assigned to one of four treatment groups, with 6 animals per group. The groups consisted of the following (1) group A: placebo (2) group B: 1 mg/kg/day; (3) group C: 4 mg/kg/day; and (4) group D: 10 mg/kg/day. In Group B, one animal died acutely following MPTP-lesioning, and was not replaced.
Animals were lesioned by the administration of MPTP at a concentration of 2.0 mg/kg (free-base) via subcutaneous injection to achieve a parkinsonian state (see FIGS. 151-156). A post-MPTP lesioning behavioral assessment was carried out 2 to 4 weeks after the last MPTP-Iesioning. Locomotor activity was monitored by IRAM in 60-minute sessions for 3 to 5 days. Clinical behavior (CAS) was assessed by one to three individuals rating over a period of 3 to 5 days.
Animals were tested for response to L-Dopa and the efficacy of drug nepicastat. Testing was carried out 4 to 12 weeks after the last MPTP dose. Twenty-tour squirrel monkeys were randomly assigned to 4 groups; Group A (6 animals) received placebo (water) treatment; Group B (5 animals) received drug nepicastat at 1 mg/kg/day (0.5 mg/kg twice daily); Group C (6 animals) received 4 mg/kg/day (2 mg/kg twice daily); and Group D (6 animals) received 10 mg/kg/day (5 mg/kg twice daily).
L-Dopa was administered at a concentration of either 2.5, 5, or 7.5 mg/kg by oral gavage twice daily (at 10 am and 2 pm) for 7 consecutive days. Behavior was determined by IRAM and CRS. Clinical rating was carried out 60 to 90 minutes following the 10 am morning dose on the last 4 days of treatment. Raters (one to three individuals) were blinded to the different treatment groups. IRAM assessment were preformed for 90 minutes immediately following drug administration at 2 pm on the last 2 to 5 days of drug treatment. There was a minimum 2 day washout period between each treatment dose.
Drug nepicastat or water (as placebo) was administered for 12 days following a minimum 2 day washout after L-Dopa dosing. Drug was administered twice daily at 10 am and 2 pm by oral gavage. Behavior was rated by IRAM and CRS. The CRS was conducted in the morning, 60 to 90 minutes after the 10 am dose of nepicastat on the last 5 days of drug treatment. Raters (one to three individuals) were blinded to the different treatment groups. IRAM assessments were preformed for 90 minutes immediately following drug administration at 2 pm on the last 5 days of drug treatment.
Eight parkinsonian features were rated in each animal and the total score was derived from the sum of these eight features. […]

[1] = tested on: dopamine/norepinephrine ratio; test: Dose response of tissue dopamine/norepinephrine ratio 6 hours after a single oral dose; type: in vivo, Sprague-Dawley rats

## Cl.NCc1c[nH]c(=S)n1[C@H]1CCc2c(F)cc(F)cc2C1 [nepicastat, (S)-5-Aminomethyl-1-(5,7-difluoro-1,2,3,4-tetrahydronaphth-2-yl)-2,3-dihydro-2-thioxo-1H-imidazole hydrochloride]
Parkinsonian symptoms; 1, 4, 10 mg/kg/day, 12 days, non-pairwise
  CRS / parkinsonian symptoms compared to placebo: no detectable differences; also recorded: no significant effect
Parkinsonian symptoms; nepicastat 4 and 10 mg/kg/day, pairwise
  CRS / parkinsonian symptoms compared to post-MPTP (pre-treatment) state: significant improvement; also recorded: significant effect
[1]
  dose with significant increase in dopamine/norepinephrine ratio, left ventricle: 1.0 mg/kg
  dose with significant increase in dopamine/norepinephrine ratio, mesenteric artery: 3.0 mg/kg
[1]; only at this dose
  dose with significant increase in dopamine/norepinephrine ratio, cerebral cortex: 100 mg/kg
